Values quoted from earlier work as cited in patent publication US4101650A, “Pepstatin floating minicapsules” (Zaidan Hojin Biseibutsu Kagaku Kenkyu Kai, priority 1977, dated 1978).
Where a SMILES comes first, the peptide text is derived from it. [ ]: non-standard residue; d: D form. The star is where a group is joined. Sta = CC(C)C[C@H](N)[C@@H](O)CC(=O)O; Isovaleryl = CC(C)CC(=O)*

Tests used:
[1] = molecular target: T1, renin (Homo sapiens, UniProt P00797)
T1 sequence (P00797 67-406): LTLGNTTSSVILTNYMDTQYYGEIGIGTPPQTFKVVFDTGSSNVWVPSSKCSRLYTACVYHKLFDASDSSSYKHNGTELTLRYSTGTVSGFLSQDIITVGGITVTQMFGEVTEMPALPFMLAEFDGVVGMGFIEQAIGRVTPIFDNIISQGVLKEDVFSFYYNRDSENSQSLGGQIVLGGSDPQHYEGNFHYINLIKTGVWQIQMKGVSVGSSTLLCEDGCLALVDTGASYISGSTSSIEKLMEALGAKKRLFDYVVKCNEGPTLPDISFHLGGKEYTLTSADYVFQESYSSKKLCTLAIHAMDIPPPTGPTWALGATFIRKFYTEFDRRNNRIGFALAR

[2] = molecular target: cathepsin D (Homo sapiens, UniProt P07339)
[3] = system: pepsin

Sequence of cathepsin D (P07339 65-412, species assumed): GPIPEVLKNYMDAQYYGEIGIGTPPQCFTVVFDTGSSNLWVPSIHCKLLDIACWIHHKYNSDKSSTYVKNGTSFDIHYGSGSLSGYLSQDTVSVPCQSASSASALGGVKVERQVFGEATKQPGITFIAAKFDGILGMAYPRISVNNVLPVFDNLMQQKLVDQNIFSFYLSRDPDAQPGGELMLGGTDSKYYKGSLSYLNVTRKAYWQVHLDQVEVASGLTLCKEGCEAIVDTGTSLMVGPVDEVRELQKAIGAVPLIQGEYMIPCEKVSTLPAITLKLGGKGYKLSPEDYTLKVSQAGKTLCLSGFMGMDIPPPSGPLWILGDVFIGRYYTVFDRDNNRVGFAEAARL

CC(C)CC(=O)N[C@H](C(=O)N[C@H](C(=O)N[C@@H](CC(C)C)[C@@H](O)CC(=O)N[C@@H](C)C(=O)N[C@@H](CC(C)C)[C@@H](O)CC(=O)O)C(C)C)C(C)C [Pepstatin, RCO-L-Val-L-Val-AHMHA-L-Ala-AHMHA] (Isovaleryl-VV[Sta]A[Sta]-OH)
inhibition of renin [1]: relative strong inhibiton | inhibition of cathepsin D [2]: very strongly | inhibition of pepsin [3]: very strongly
